According to patent US20040072319A1, “Molecules that modulate ubiquintin-dependent proteolysis and methods for identifying same” (priority 2003, published 2004):
Peptide text beside a SMILES is read from it.

Legend:
[1] = molecular target: T1, Cdc4 (Saccharomyces cerevisiae, UniProt P07834); test: Fluorescence polarization equilibrium binding of peptides to Cdc4; parameters: made in house; host or cells: Cdc4: baculovirus-infected insect (Sf9) cells; Gst-Skp1: E. coli BL21 codon plus; species or system yeast; details: Hill plot of peptide binding to Cdc4
Method: Equilibrium binding constant determination was carried out using fluorescence polarization on a Beacon 2000 Fluorescence Polarization System (Pan Vera, Wis.) equipped with a 100 μL sample chamber. Fluorescein-labeled probes were prepared through the reaction of carboxyterminal-peptides with 5-(and-6)-carboxyfluorescein succinimidyl ester (Molecular Probes), purified by reverse-phase HPLC, and confirmed by mass spectrometry. Binding studies were conducted with 5 nM fluorescein-labeled probe dissolved in PBS containing 100 μg/ml BSA and 1 mM dithiothreitol. Reaction mixtures were allowed to equilibrate for 10 minutes at room temperature prior to each measurement. All fluorescence polarization measurements were conducted at 22° C.

[2] = molecular target: T1, Cdc4; test: Capture of Cdc4 from baculovirus-infected insect cell lysates by biotinylated peptide; format: binding, yeast; parameters: made in house; host or cells: Sf9 insect cells infected with recombinant baculovirus (crude lysate); details: insect cells infected with Cdc4 baculovirus
Source text: (§1) SCF complexes were purified from SF9 cells infected with recombinant baculoviruses and used in binding assays and ubiquitination reactions essentially as described (7). Gst-Skp1 expressed in BL21 codon plus cells (Stratagene) then purified on glutathione resin was used to capture full Cdc4 from insect cell lysates. Truncated forms of Cdc4 were enriched prior to Gst-Skp1 capture by affinity purification of hexahistidine fusion proteins on a metal chelate column. The Skp1-Cdc4 complexes were released from the Gst moiety by cleavage with TEV protease and further purified by size exclusion chromatography on a Superdex S75 or S200 column. Biotin labeled […]p[…] (SEQ ID NO. 1), […] (SEQ ID NO. 12), and APPLSQEpTFSDLWK (SEQ ID NO. 13) were synthesized by addition of d-biotin (Sigma) with an Fmoc-e-aminocaproic acid (Bachem) spacer to carboxy-terminal peptides. […] Streptavidin-agarose beads (Sigma) were incubated in the presence of biotinylated peptide for 90 min. at 4° C. Beads were washed 3 times and then incubated with lysates from Cdc4 expressing baculovirus infected Sf9 cells. Beads were washed 4 times, after which SDS-PAGE gel loading buffer was added and the beads were boiled for 5 min. Proteins were separated by SDS-PAGE and visualized by silver stain. Peptide out-competition of phosphorylated substrates was carried out with immunopurified Skp1^FLAG-Cdc4 from insect cells, which were incubated with phosphopeptides prior to addition of phospho-Sic1 or phospho-Cyclin E-Cdk2. For kinase inhibition assays, purified recombinant Clb5-Cdc28 complex (30 ng) was incubated with mutant forms of Sic1 (40 ng) and histone H1 (HH1, 2 μg) for 1 h on ice prior to addition of [^32P]-γ-ATP and incubation at 25° C. for 30 min. Samples were separated by SDS-PAGE and visualized by autoradiography.

[3] = molecular target: T2, Cdc4-Skp1 complexes (Saccharomyces cerevisiae, UniProt P07834); test: Peptide out-competition of phosphorylated substrates binding to Cdc4-Skp1; parameters: species or system yeast; details: peptide 3, 17, 68 μM in FIG. 6f
T2 construct: made in house; host or cells: insect cells (baculovirus)
Source text: as §1

[4] = molecular target: T3, SCFcdc4 (Saccharomyces cerevisiae, UniProt P07834); test: In vitro ubiquitination of substrates by SCFcdc4 in presence of peptide; format: biochemical, yeast; details: excess peptide
T3 construct: made in house; host or cells: SF9 cells infected with recombinant baculoviruses
Source text: as §1, with “Peptide out-competition of phosphorylated substrates was carried out with immunopurified Skp1^FLAG-Cdc4 from insect cells, which were incubated with phosphopeptides prior to addition of phospho-Sic1 or phospho-Cyclin E-Cdk2. For kinase inhibition assays, purified recombinant Clb5-Cdc28 complex (30 ng) was incubated with mutant forms of Sic1 (40 ng) and histone H1 (HH1, 2 μg) for 1 h on ice prior to addition of [^32P]-γ-ATP and incubation at 25° C. for 30 min. Samples were separated by SDS-PAGE and visualized by autoradiography.” left out

[5] = molecular target: T4, Skp1-Cdc4 complex (yeast, UniProt P07834 1-779; P52286 1-194, limits assumed); test: fluorescence polarization, 5 nM fluorescein-labeled peptide, Cdc4/Skp1 titrated
T4 construct: Purified complex (Gst removed by TEV, size exclusion) for fluorescence polarization and SPOTS arrays; also called Cdc4/Skp1; cdc4/skp1 complex

[6] = molecular target: Cdc4 (yeast F-box protein, recombinant, expressed in baculovirus-infected insect cells) (yeast) (UniProt P07834); test: equilibrium binding (Table in FIG. 3)
[7] = molecular target: Cdc4 (yeast F-box protein, recombinant, expressed in baculovirus-infected insect cells) (yeast) (UniProt P07834); test: equilibrium binding
[8] = molecular target: T5, Cdc4 (Saccharomyces cerevisiae, UniProt P07834); test: Capture of Cdc4 from baculovirus-infected insect cell lysates by biotinylated peptide; format: binding, yeast; details: insect cells infected with Cdc4 baculovirus
T5 construct: made in house; host or cells: Sf9 insect cells infected with recombinant baculovirus (crude lysate)
T5 sequence (P07834 whole entry, looked up): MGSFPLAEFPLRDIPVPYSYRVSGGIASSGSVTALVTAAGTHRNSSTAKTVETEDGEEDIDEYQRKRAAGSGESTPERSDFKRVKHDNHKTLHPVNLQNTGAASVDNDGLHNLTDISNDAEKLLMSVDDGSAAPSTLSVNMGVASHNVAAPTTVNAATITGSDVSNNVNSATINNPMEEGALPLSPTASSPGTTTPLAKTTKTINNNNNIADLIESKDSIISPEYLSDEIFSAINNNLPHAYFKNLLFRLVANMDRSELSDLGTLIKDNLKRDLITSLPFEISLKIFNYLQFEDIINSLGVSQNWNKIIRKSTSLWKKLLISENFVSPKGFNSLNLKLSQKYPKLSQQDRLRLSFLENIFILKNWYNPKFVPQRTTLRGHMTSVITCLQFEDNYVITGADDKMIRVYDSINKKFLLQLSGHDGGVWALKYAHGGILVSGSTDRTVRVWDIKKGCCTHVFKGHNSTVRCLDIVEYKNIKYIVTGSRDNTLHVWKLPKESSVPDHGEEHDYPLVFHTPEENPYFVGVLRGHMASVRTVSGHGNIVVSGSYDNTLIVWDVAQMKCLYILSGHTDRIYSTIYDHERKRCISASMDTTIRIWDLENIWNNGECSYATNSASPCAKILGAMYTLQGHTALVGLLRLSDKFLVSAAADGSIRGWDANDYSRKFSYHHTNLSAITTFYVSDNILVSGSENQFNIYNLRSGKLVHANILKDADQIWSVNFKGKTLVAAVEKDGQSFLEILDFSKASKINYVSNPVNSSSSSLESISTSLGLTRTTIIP
Source text: as §1, with “Peptide out-competition of phosphorylated substrates was carried out with immunopurified Skp1^FLAG-Cdc4 from insect cells, which were incubated with phosphopeptides prior to addition of phospho-Sic1 or phospho-Cyclin E-Cdk2. For kinase inhibition assays, purified recombinant Clb5-Cdc28 complex (30 ng) was incubated with mutant forms of Sic1 (40 ng) and histone H1 (HH1, 2 μg) for 1 h on ice prior to addition of [^32P]-γ-ATP and incubation at 25° C. for 30 min. Samples were separated by SDS-PAGE and visualized by autoradiography.” left out

[9] = molecular target: Cdc4 (yeast F-box protein, recombinant, expressed in baculovirus-infected insect cells) (yeast) (UniProt P07834); test: equilibrium binding, fluorescence polarization
[10] = molecular target: T4, Skp1-Cdc4 complex; test: fluorescence polarization
[11] = molecular target: T6, Cdc4 (yeast F-box protein, recombinant, expressed in baculovirus-infected insect cells) (yeast, UniProt P07834 1-779); test: capture of Gst-Sic1 on Cdc4^FLAG resin, anti-Sic1 blot
T6 construct: also called Cdc4^FLAG
T6 sequence (looked up): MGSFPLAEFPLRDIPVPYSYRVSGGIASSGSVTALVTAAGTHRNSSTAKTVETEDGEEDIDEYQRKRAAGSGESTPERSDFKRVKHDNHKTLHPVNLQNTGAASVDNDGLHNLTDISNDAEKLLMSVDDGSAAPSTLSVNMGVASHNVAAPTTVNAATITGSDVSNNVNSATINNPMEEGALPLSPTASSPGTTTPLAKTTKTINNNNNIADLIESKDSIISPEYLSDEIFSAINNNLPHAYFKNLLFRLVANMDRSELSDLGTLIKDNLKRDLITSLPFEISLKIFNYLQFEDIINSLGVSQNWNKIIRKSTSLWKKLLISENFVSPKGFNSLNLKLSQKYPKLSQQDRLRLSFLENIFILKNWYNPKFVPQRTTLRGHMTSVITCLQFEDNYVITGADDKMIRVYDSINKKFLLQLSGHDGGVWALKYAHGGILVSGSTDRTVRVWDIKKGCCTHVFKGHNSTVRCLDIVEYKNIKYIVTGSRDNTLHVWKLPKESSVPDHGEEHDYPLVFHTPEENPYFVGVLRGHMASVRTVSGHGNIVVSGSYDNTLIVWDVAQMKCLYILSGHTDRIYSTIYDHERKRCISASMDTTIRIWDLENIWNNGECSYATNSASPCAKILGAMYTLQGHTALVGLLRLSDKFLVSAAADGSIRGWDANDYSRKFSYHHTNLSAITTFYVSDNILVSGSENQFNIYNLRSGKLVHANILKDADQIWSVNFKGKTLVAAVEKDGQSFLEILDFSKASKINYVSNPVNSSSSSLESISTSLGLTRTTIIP

T2 sequence (P52286 whole entry partner, one chain of several): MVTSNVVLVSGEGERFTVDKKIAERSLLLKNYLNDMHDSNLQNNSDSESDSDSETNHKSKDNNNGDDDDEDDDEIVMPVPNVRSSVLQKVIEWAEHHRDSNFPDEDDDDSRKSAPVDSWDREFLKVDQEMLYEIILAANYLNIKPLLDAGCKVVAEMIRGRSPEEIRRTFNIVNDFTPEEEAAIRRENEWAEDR
T3 sequence (P52286 whole entry partner, one chain of several): as above
T3 sequence (Q12018 whole entry partner, one chain of several): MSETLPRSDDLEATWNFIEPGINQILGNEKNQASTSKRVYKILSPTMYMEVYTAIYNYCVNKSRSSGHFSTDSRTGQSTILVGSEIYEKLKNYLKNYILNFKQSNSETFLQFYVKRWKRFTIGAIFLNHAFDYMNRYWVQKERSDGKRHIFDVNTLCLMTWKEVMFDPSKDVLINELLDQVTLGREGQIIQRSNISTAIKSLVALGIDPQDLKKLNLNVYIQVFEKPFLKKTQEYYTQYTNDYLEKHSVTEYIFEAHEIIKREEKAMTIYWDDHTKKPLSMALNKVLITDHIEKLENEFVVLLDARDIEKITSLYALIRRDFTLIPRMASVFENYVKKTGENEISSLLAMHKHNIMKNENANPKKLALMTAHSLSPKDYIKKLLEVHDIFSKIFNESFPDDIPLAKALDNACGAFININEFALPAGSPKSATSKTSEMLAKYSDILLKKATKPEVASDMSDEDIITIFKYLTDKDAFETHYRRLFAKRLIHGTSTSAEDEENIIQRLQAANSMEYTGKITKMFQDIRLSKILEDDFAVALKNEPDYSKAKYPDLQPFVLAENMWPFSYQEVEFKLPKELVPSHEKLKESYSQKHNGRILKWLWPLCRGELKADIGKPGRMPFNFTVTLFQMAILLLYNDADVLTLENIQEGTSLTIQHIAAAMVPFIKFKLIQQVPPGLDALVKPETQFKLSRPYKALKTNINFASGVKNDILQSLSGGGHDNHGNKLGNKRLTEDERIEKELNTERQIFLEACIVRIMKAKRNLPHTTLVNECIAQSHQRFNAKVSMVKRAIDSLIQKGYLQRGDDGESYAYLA

Question: For `CC(C)C[C@H](NC(=O)CNC(=O)[C@H](CO)NC(=O)[C@@H]1CCCN1C(=O)[C@H](CC(C)C)NC(=O)[C@@H]1CCCN1C(=O)[C@H](CO)NC(=O)[C@H](C)N)C(=O)N[C@@H](CC(C)C)C(=O)N[C@H](C(=O)N1CCC[C@H]1C(=O)N1CCC[C@H]1C(=O)N[C@@H](CCC(N)=O)C(=O)N[C@@H](CO)C(=O)NCC(=O)N[C@@H](CCCCN)C(=O)N[C@@H](CCCCN)C(=O)N[C@@H](CCC(N)=O)C(=O)N[C@@H](CO)C(=O)O)[C@@H](C)OP(=O)(O)O` [CycE-19mer, ASPLPSGLLpTPPQSGKKQS] (HELM PEPTIDE1{A.S.P.L.P.S.G.L.L.[C[C@@H](OP(=O)(O)O)[C@H](N[*:1])C(=O)[*:2]].P.P.Q.S.G.K.K.Q.S}$$$$V2.0), which Hill coefficient [1] is on record?
Answer: Its Hill coefficient is 0.99.

Question: And the “capture of Cdc4 from lysates by biotinylated peptide” value (shortened to “capture of Cdc4 from lysates”) ([2]; listed as CycE19-pT380)?
Answer: Its value is “able to capture Cdc4”.

Question: What about the “capture of Cdc4 from lysates” value ([2]; listed as CycE^19-pT380) of the same molecule?
Answer: The value was “captures recombinant Cdc4”.

Question: And the “capture of Cdc4 from lysates” value ([2]; listed as cycE19P)?
Answer: The value was “capture of Cdc4”.

Question: What about the “capture of Cdc4 from lysates” value ([2]; listed as cycEpT19mer) of the same molecule?
Answer: Its value is “able to precipitate cdc4”.

Question: And the “competition with substrates (Sic1, cyclin E1, Far1) for binding to Cdc4” value (shortened to “competition with substrates”) ([3]; listed as CycE19-pT380)?
Answer: Its value is “able to out-compete”.

Question: What about the “competition with substrates” value ([3]; listed as CycE^19-pT380) of the same molecule?
Answer: Its value is “out-competes binding of Sic1 and cyclin E1”.

Question: And the “competition with substrates” value ([3]; listed as cycE19P)?
Answer: Its value is “able to compete”.

Question: What about the “competition with substrates” value ([3]; listed as cycEpT) of the same molecule?
Answer: Its value is “inhibits the interaction”.

Question: What about the “competition with substrates” value ([3]; listed as cyclin E phosphopeptide) of the same molecule?
Answer: Its value is “competed”.

Question: And the “block of ubiquitination of SCFcdc4 substrates” value ([4]; listed as CycE19-pT380)?
Answer: The value was “able to out-compete”.

Question: And the “block of ubiquitination of SCFcdc4 substrates” value ([4]; listed as cycE19P)?
Answer: The value was “blocked”.

Question: What does the source list for Gcn4-9mer FLPpTPVLED (peptide)?
Answer: Kd [5]: 880 nM; Kd [6]: 675 nM

Question: Which Kd [5] does the source give for Cdc 16 peptide LSKNLLpTPQEEWD here?
Answer: The Kd was 900 nM.

Question: And the Kd [7]?
Answer: The Kd was 750 nM.

Question: How did the “capture of Cdc4 from lysates” value ([8]; listed as non-phosphorylated CycE^19-pT380 peptide) turn out when “ASPLPSGLLTPPQSGKKQS [unphosphorylated peptide, biotin labeled unphosphorylated cyclin E1 19 residue control peptide, reference compound]” was run?
Answer: Its value is “does not”.

Question: And the “capture of Cdc4 from lysates” value ([8]; listed as unphosphorylated version of the peptide)?
Answer: The value was “failed to interact with cdc4”.

Question: CycEpS-9mer GLLpSPPQSG (peptide) was tested. Which fold lower affinity (against the phosphothreonine cyclin E peptide) [9] did it give?
Answer: Its fold lower affinity (against the phosphothreonine cyclin E peptide) is 6 fold.

Question: What about the fold lower affinity (against the phosphothreonine peptide) [10] of the same molecule?
Answer: Its fold lower affinity (against the phosphothreonine peptide) is 6 fold.

B1: Sic1 6m (Sic1^9m with T33, T45 and S76 restored), Gst fusion (other, yeast, UniProt P38634 1-284, looked up)
chain: MAPSAPPRSRGTRYLAQPSGNTSSSALMQGQKTPQKPSQNLVPVTPSTTKSFKNAPLLAPPNSNMGMTAPFNGLTSPQRAPFPKSSVKRTLFQFESHDNGTVREEQEPLGRVNRILFPTQQNVDIDAAEEEEEGEVLLPPSRPTSARQLHLSLERDEFDQTHRKKIIKDVPGAPSDKVITFELAKNWNNNVPKNDARSQESEDEEDIIINPVRVGKNPFASDELVTQEIRNERKRAMLRENPDIEDVITYVNKKGEVVEKRRLTDEEKRRFKPKALFQSRDQEH
modifications: treated with Cln2-Cdc28 kinase
notes: not shown: glutathione S-transferase (Gst) fusion moiety of pGEX-3x
Question: Does B1 bind [11]?
Answer: Result: no binding

B2: Sic1 7m (Sic1^9m with T45 and S76 restored), Gst fusion (other, yeast, UniProt P38634 1-284, looked up)
chain: MAPSAPPRSRGTRYLAQPSGNTSSSALMQGQKAPQKPSQNLVPVTPSTTKSFKNAPLLAPPNSNMGMTAPFNGLTSPQRAPFPKSSVKRTLFQFESHDNGTVREEQEPLGRVNRILFPTQQNVDIDAAEEEEEGEVLLPPSRPTSARQLHLSLERDEFDQTHRKKIIKDVPGAPSDKVITFELAKNWNNNVPKNDARSQESEDEEDIIINPVRVGKNPFASDELVTQEIRNERKRAMLRENPDIEDVITYVNKKGEVVEKRRLTDEEKRRFKPKALFQSRDQEH
modifications: treated with Cln2-Cdc28 kinase
notes: as for B1
Question: Does B2 bind [11]?
Answer: Result: no binding
